In patent publication US8883504B2, “Cell differentiation suppressing agent, method of culturing cells using the same, culture solution, and cultured cell line” (Asahi Kasei Kabushiki Kaisha, priority 2003, dated 2014):

Test system: mouse embryonic stem cell line D3ES cell
Assay: Alkaline phosphatase staining 1
Format: cell-based
Method: For the D3ES cell obtained by the preparation of the mouse ES cell as described in (3) above, 3×10^2 to 1×10^3 cells per well was seeded in […] of the ES cell assay medium in a well of a 96-well cell culture dish (Falcon Corp. made, Cat. No. 3072, USA) coated previously with a 0.1% aqueous gelatin solution. A 10 μl of the differentiation inhibiting agent (A,B,C,D,E,F: A to D were ASINEX Corp. (Russia) made and E to F were purchased from PHARMEKS Corp. (Russia)) of the present invention or ESGRO, which was dissolved in dimethylsulfoxide (DMSO), or water, or the mixture, was added to each well to make 0.4 to 40 μg/mL, and culturing was carried out at 37° C. in 5% CO2 incubator for 7 days. DMSO added to the medium was adjusted to make a final concentration of 0.1% or lower. On the other hand, to a control well was added only DMSO to make the final concentration of 0.1%.
The ES cells were stained by using an alkaline phosphatase kit (SIGMA Diagnostic Corp. made, Cat. No. 86-R). […]

CC(=O)c1ccc(/N=N/C(C(N)=O)=C2/NC(C)(C)Cc3ccccc32)cc1 [compound B, 2-(4-acetyl-phenylazo)-2-(3,3-dimethyl-3,4-dihydro-2H-isoquinoline-1-ylidene)-acetamide]
undifferentiated colony formation compared with ES cells cultured in the presence of ESGRO (positive control) (compound 4 μg/mL, ESGRO 1000 units/mL): form an undifferentiated colony equal to that of the ES cells cultured in the presence of ESGRO
alkaline phosphatase staining in comparison with ES cells cultured in the absence of ESGRO (compound B 4 μg/mL, FIG. 4): stained significantly more densely
